Measured values from ChEMBL document CHEMBL4699657, “Fragment-to-Lead Medicinal Chemistry Publications in 2019” (J Med Chem, 2020).

Assay: Inhibition of Influenza A/California/04/09 H1N1 PA endonuclease (1 to 204 residues) expressed in Escherichia coli BL21 (RIL) cells using (6-FAM)TGGCAATATCAGCTCCACA(MGBNFQ) DNA probe as substrate measured after 5 to 90 mins by fluorescence assay
Parameters: species or system Influenza A virus (A/California/04/2009(H1N1))

| Structure (SMILES) | IC50 [µM] |
| --- | --- |
| O=C(O)c1ccc(-c2cc(O)c(=O)[nH]c2-c2ccc(F)cc2)cc1 | 0.011 |
| O=c1[nH]cc(Br)cc1O | 16 |
